Assay results taken from publication PMC9061853, “Luminescent bis(benzo[d]thiazolyl)quinoxaline: facile synthesis, nucleic acid and protein BSA interaction, live-cell imaging, biopharmaceutical research and cancer theranostic application” (RSC Advances, 2019).

Experiments:
[1] = MTT cytotoxicity assay, Caco-2; type: cell-based, human; settings: human, Caco-2, ratio of IC50 for HEK-293 to IC50 for Caco-2; read-out: SF (selectivity factor) Caco-2
From the text: (§1) In vitro cytotoxic activities (MTT assay):
(§2) The basic detection of cytotoxicity of anticancer compounds in vitro is MTT assay. The MTT proliferation assay is based on the reduction of the yellow MTT tetrazolium salt (3-[4,5-dimethylthiazol-2-yl]-2,5diphenyltetrazolium bromide) by mitochondrial dehydrogenases to form a purple MTT formazan crystals in viable cells. Synthesized compounds (7a-g) were prior dissolved in 0.1% DMSO and then serial dilution with medium and used in the experiment. Three different types of cancer cell lines were used in this experiment i.e., human Epitheloid Cervix Carcinoma (HeLa), human colon cancer cell line (Caco-2) and one normal kidney cell (HEK-293) were used in the assay. The cells were harvested at the log phase and it is cell counted using haemocytometer. Approximately 1 × 10^3 cells per well were seeded using all the cell lines. They were cultured in 100 μL of a DMEM media in 96-well plates and incubated at 37 °C for 24 hours under a 5% CO2 atmosphere. The cells were then washed with 1X PBS buffer and fresh media was added to the cells. The cells were then treated with different concentrations of the drugs (0.65-150 µM) in the volume of […] /well.
(§3) The control wells contains the same cell count of 1 × 10^3 cells per well of 100 μL medium containing 0.1% DMSO. After 24 h (for HeLa cell and HEK-293) and 72 h (for Caco-2), the medium was discarded and it is washed with 1X PBS and it was incubated with 100 µl of MTT reagent (1 mg/ml) for 4 h at 37°C.
(§4) Then the 96 well plate was placed on the shaker for 10 min and subsequently the absorbance was recorded by the ELISA reader at λ = 490 nm. The experiments were performed in […]
(§5) triplicate. […]

Caco-2 = assay: MTT cytotoxicity assay, Caco-2; type: cell-based, human; settings: Homo sapiens, Caco-2; 72 h incubation
From the text: as §1, §2, §3, §4, §5

HeLa = assay: MTT cytotoxicity assay, HeLa; type: cell-based, human; settings: for IC50: 24 h incubation; for SF (selectivity factor) HeLa: ratio of IC50 for HEK-293 to IC50 for HeLa
Procedure: (§6) Cytotoxicity studies were performed for all the synthesized quinoxaline compounds (7a–7g) using standard 3-(4,5-dimethylthiazol-2-yl)-2,5-diphenyltetrazolium bromide (MTT) assay beside a panel of cancer cell lines such as human epithelioid cervix carcinoma (HeLa), human colorectal adenocarcinoma cell line (Caco-2) and one normal human embryonic kidney cells (HEK-293) in triplicates (Table 3). […] It is noteworthy to mention that Compound 7a and 7g presented best cytoselectivity in HeLa and Caco-2 cell lines respectively. […]
as §1
as §2, with “[…]. Cisplatin has been used as a standard positive control drug. The control wells contains the same cell count of 1 × 10^3 cells per well of 100 μL medium containing 0.1% DMSO. After 24 h (for HeLa cell and HEK-293) and 72 h (for Caco-2), the medium was discarded and it is washed with 1X PBS and it was incubated with 100 µl of MTT reagent (1 mg/ml) for 4 h at 37°C.” for “/well.”
as §4, §5

HEK-293 = assay: MTT cytotoxicity assay, HEK-293 normal cells; type: cell-based, human; settings: 24 h incubation
Procedure: as §6, §1
as §2, with “[…]. Cisplatin has been used as a standard positive control drug. The control wells contains the same cell count of 1 × 10^3 cells per well of 100 μL medium containing 0.1% DMSO. After 24 h (for HeLa cell and HEK-293) and 72 h (for Caco-2), the medium was discarded and it is washed with 1X PBS and it was incubated with 100 µl of MTT reagent (1 mg/ml) for 4 h at 37°C.” for “/well.”
as §4, §5

[2] = Fluorescence quantum yield in water; type: physicochemical; settings: 298 K, quinine sulphate as standard
Procedure: To know the absorption and emission behaviour of these synthesized compounds (7a–g), a standard concentration (3 × 10^−6 mol l^−1) in water has been used. In UV-vis spectra, λmax of all these compounds are observed at 320–330 nm due to π–π* transition (Fig. S1a ^†). The corresponding emission peaks are observed at 400–500 nm (Fig. S1b ^†). The emission of quantum yield (Φ) was calculated for all of the compounds (7a–g) using eqn (1) (Table S1 ^†). […]
2.6.2. Fluorescence study:
To know the emission property of all the synthesized complexes (7a-g), an initial investigation was performed using spectrofluorometric method in water by using absorption maximum as their excitation energy. Fluorescence quantum yield (Ф) of all the prepared compounds performed in water solution were calculated by employing the comparative William's method which involves the use of well-characterized standard with the known quantum yield value. Quinine sulphate was used as reference fluorophore excited at 350 nm and emission at 452 nm, quantum yield (ФR) = 0.50 in 1N H2SO4. The gradients of the plots are proportional to the quantum yield (Ф) of the studied system. The data obtained and quantum yield value calculated according to the equation (2): […]
Where, φ = Quantum yield, I = Peak Area, OD = absorbance at λmax, η = Refractive index of solvent and reference. Here, we have used Quinine Sulphate as a standard for calculating emission of quantum yield. […]

SMILES | selectivity ratio [1] | IC50 (Caco-2) [µM] | IC50 (HeLa; Homo sapiens, HeLa) [µM] | SF (selectivity factor) HeLa (HeLa) | IC50 (HEK-293; Homo sapiens, HEK293) [µM] | Φ, emission quantum yield [2] | melting point [°C] | IC50 (HeLa) [µM] | IC50 (HEK-293) [µM]
Fc1ccc2nc(COc3ccccc3-c3nc4ccccc4s3)c(COc3ccccc3-c3nc4ccccc4s3)nc2c1 [Compound 7d] | > 2.17 | 92 ± 4.9 | 117 ± 5.4 | >1.7 | > 200 | 0.04 | 135 to 139 |  | 
Brc1ccc2nc(COc3ccccc3-c3nc4ccccc4s3)c(COc3ccccc3-c3nc4ccccc4s3)nc2c1 [Compound 7b] | 1.28 | 109 ± 0.8 | > 100 | < 1.4 | 140 ± 1.4 | 0.017 | 145 |  | 
N.N.[Cl][Pt][Cl] [Cisplatin, reference compound] |  |  |  |  |  |  |  | 14.5 ± 0.8 | 50 ± 1.2
c1ccc(-c2nc3ccccc3s2)c(OCc2nc3ccccc3nc2COc2ccccc2-c2nc3ccccc3s2)c1 [Compound 7a] | 1.71 | 69.8 ± 0.8 | 73.1 ± 1.7 | 1.6 | 120 ± 0.9 | 0.006 | 130 to 135 |  | 
Fc1cc2nc(COc3ccccc3-c3nc4ccccc4s3)c(COc3ccccc3-c3nc4ccccc4s3)nc2cc1Cl [Compound 7f] | > 2 | > 100 | 44.3 ± 0.3 | >4.5 | > 200 | 0.014 |  |  | 
Clc1ccc2nc(COc3ccccc3-c3nc4ccccc4s3)c(COc3ccccc3-c3nc4ccccc4s3)nc2c1 [Compound 7c] | 2.13 | 75 ± 3.5 | 68.61 ± 0.2 | 2.3 | 160 ± 2.1 | 0.017 | 150 |  | 
